Measurements taken from US20150283269A1, “RECONSTITUTED HUMAN IMMUNE SYSTEM IN A PATIENT DERIVED XENOGRAFT MOUSE MODEL” (Crown Bioscience Inc., priority 2014, published 2015).

Tested on: GA 0055 tumor
Assay: Anti-tumor activity against GA 0055 gastric tumor PDX in HuMice and NOD/SCID mice
Type: in vivo, mouse
Text: In yet another example of the utility of the HuPrime™ 3.0 mouse model (PDX human immunocompetent NOD/SCID mouse with CD34^+ hSC+PDX gastric tumor), patient cells derived from a human patient diagnosed with over-expressing gastric cancer, GA 0055, were engrafted into HuPrime™ 3.0 mice.
The HuPrime™ 3.0 mice engrafted with GA 0055 were divided into six groups, four mice each. Three groups were engrafted with UCB human stem cells and three groups were not.
Patient tumor fragments of NSCLC or gastric tumor tissue derived from diseased seed mice were engrafted 2.5 weeks after the CD34+ cell inoculation in order to create patient derived xenograft (PDX) models. Solid tumor sample fragments from seed mice inoculated with selected primary human lung or gastric cancer tissues were harvested and used for inoculation into mice. Each mouse was inoculated subcutaneously at the right flank with one tumor fragment (2-3 mm in diameter) for tumor development. The treatments were started when mean tumor size reached approximately 100-150 mm^3 The transplanted animals were monitored by weekly bleed and FACS analysis for hCD45^+ cells in peripheral blood.

N.N.[Cl][Pt][Cl] [Cisplatin]
treatment response, stained GA 0055 tumor cross-sections (5 mg/kg Cisplatin, H&E stained cross-section (40x10), FIG. 6A): effective | tumor growth (HuMice mice (reconstituted human immunocompetent) engrafted with GA 0055, with vs without treatment, FIG. 7A, 7C): slowed tumor growth
